Results from US20230218663A1, “COMPOSITIONS AND METHODS FOR TREATING A SARS-COV-2 INFECTION” (priority 2020, published 2023).
“And” between values parts separate entries of the source, which are not always exact repeats. Equal entries are not always repeated. Where two headings read alike, the source gives them in different places.

Tests used:
SARS-CoV-2 [1] = assay: Viral load reduction assay in VeroE6 cells; assay type: cell-based
Method: Viral load reduction assay was performed on VeroE6 and Caco2 cells, as described previously with modifications^41. Supernatant samples from the infected cells (0.1 MOI) were harvested at 48 hours post-infection (hpi) for qRT-PCR analysis of virus replication. Briefly, 100 μL of viral supernatant were lyzed with 400 μL of AVL buffer and then extracted for total RNA with the QIAamp viral RNA mini kit (Qiagen, Hilden, Germany). Real-time one-step qRT-PCR was used for quantitation of SARS-CoV-2 viral load using the QuantiNova Probe RT-PCR kit (Qiagen) with a LightCycler 480 Real-Time PCR System (Roche) as previously described^15. Each […] mixture contained 10 μL of 2×QuantiNova Probe RT-PCR Master Mix, 1.2 μL of RNase-free water, 0.2 μL of QuantiNova Probe RT-Mix, 1.6 μL each of 10 μM forward and reverse primer, 0.4 μL of 10 μM probe, and 5 μL of extracted RNA as the template. Reactions were incubated at 45° C. for 10 min for reverse transcription, 95° C. for 5 min for denaturation, followed by 45 cycles of 95° C. for 5 s and 55° C. for 30 s. Signal detection and measurement were taken in each cycle after the annealing step. The cycling profile ended with a cooling step at 40° C. for 30 s. The primers and probe sequences are against the RNA-dependent RNA polymerase/Helicase (RdRP/Hel) gene region of SARS-Cov-2 previously described^42.
Cell culture supernatants were collected at 48 hour-post-infection (hpi) for viral RNA extraction and quantitative reverse transcription-polymerase chain reaction (qRT-PCR) as previously described with modifications(13, 14). The primers and probe sequences were against the RNA-dependent RNA polymerase/Helicase (RdRP/Hel) gene region of SARS-CoV-2: forward primer: 5′-[…]-3′ (SEQ ID NO:6); reverse primer: 5′-[…]-3′(SEQ ID NO:7); specific probe: 5′-[…]-IABkFQ-3′(SEQ ID NO:8). The viral load reduction assay experiments were performed in triplicate and repeated twice for confirmation.

[2] = cited from earlier work
SARS-CoV-2 [3] = details: Caco-2
SARS-CoV-2 [4] = assay: Golden Syrian hamster model, oral treatment (NAC studies); assay type: in vivo; details: hamster, in vivo
SARS-CoV-2 [5] = assay type: cell-based
SARS-CoV-2 [6] = assay type: cell-based; remark: listed apart in the source
SARS-CoV-2 [7] = assay type: cell-based; details: read-out: EC50 VeroE6
Caco2 cells = assay: Cell viability assay (CellTiterGlo), Caco2; assay type: cell-based, human; details: 48 hrs incubation; concentration based on metal content; read-out: CC50 Caco2
Method: (§1) The CellTiterGlo® luminescent assay (Promega Corporation, Madison, Wis., USA) was performed to detect the cytotoxicity of the selected compounds as previously described^39. Briefly, VeroE6 cells (4×10^4 cells per well) and Caco2 cells (4×10^4 cells per well) were incubated with different concentrations of the individual compound in 96-well plates for 48 hrs, followed by the addition of the substrate and measurement of luminance 10 min later. Ridaura and Au(PEt3)Cl were dissolved in DMSO, and the final percentage of DMSO was kept at 1% in culture medium.

[8] = In vivo pharmacokinetics and biodistribution in SD rats; set-up: species or system Sprague Dawley rats
Method: For the measurement of detailed pharmacokinetics profiles of the optimal NAC combination with CBS identified from the above mice study, rats received a minor surgery of cannulation one day prior to experiment, with a polythene tube (i.d.0.4 mm×o.d. 0.8 mm, Harvard Apparatus, USA) in the left jugular vein, followed by an overnight recovery and fasting. Two group of rats (n=5 per group) were orally administrated with 1-mL aliquot of CBS (150 mg/kg) or CBS (150 mg/kg)+10NAC (610 mg/kg). About 200 μL of rat blood were collected via the jugular vein cannula into a heparinized centrifuge tube at 0.17, 0.33, 0.5, 1, 2, 4, 6, 8, 12, 24-hour post drug administration for respective group. Rats were allowed for free access to food 12 h after drug administrations. All the rats were sacrificed 24-hour post dosing followed by cardiac perfusion with 200-mL saline to collect major organs including spleen, liver, lung, kidney and brain for further analyses. For the digestion of tissues, a modified protocol from US EPA 3050B (USEPA, 1996) was used. Briefly, approximate 0.2˜0.3 g of the respective rat organ samples was placed in 15 ml polypropylene tubes and digested with 1 mL of 69% HNO3 at 65° C. for 16 h, while 100 μL of rat blood was digested with equal volume of 69% HNO3 at 65° C. for 16 h. After being cooled down to room temperature, the samples were diluted to 1% nitric acid to the final volume of 3 mL for further use. To eliminate matrix effect, blood and organs were also collected from untreated rats and digested under identical condition serving as blank control. Standard solutions were prepared by diluting multielement calibration standard of bismuth in the respective blank control of organ and blood, respectively. The bismuth content in each organ or blood sample was then measured by ICP-MS and calculated according to the standard curve in respective blank control. Pharmacokinetic parameters including the peak concentration (Cmax), the area under the concentration-time curve (AUC), the time reaching Cmax (Tmax) were determined through noncompartmental analysis with Phoenix WinNonlin version 6.4 (Pharsight Corporation, Mountain View, Calif., USA).

VeroE6 cells = assay: Cell viability assay (CellTiterGlo), VeroE6; assay type: cell-based, African green monkey; details: 48 hrs incubation; concentration based on metal content; read-out: CC50 VeroE6
Method: as §1

[9] = Chemical stability of bismuth drugs at different pH
[10] = oral, CBS 150 mg/kg, NAC 610 mg/kg, bismuth
[11] = oral, CBS 150 mg/kg, NAC 610 mg/kg, bismuth, listed as CBS

## Colloidal Bismuth Subcitrate [De-Nol]
SARS-CoV-2 [1]
  maximal viral load reduction in VeroE6 cell culture supernatant: ~4 logs
  maximal viral load reduction in the VeroE6 cell lysate: ~2 logs
[2]; gastric juice
  optimum pH for precipitation: 3.5
[2]; water
  solubility: soluble in water
SARS-CoV-2 [3]
  maximal viral load reduction in Caco2 cell culture supernatant: ~4 logs
  maximal viral load reduction in the Caco2 cell lysate: ~3 logs
SARS-CoV-2 [4]
  adverse clinical signs and symptoms: mildly mitigated
  pulmonary viral load compared with vehicle group: No statistically significant difference
SARS-CoV-2 [4]; po
  change in lung IL-6 level versus vehicle group: lowered but statistically non-significant change
SARS-CoV-2 [5]
  effect on virus replication, drug maintained after virus entry (post-entry): functioned at post-entry stages
Caco-2 cell monolayer
  bismuth intestinal permeation within 60 min: moderately elevated
SARS-CoV-2 [6]
  viral NP antigen-positive cells: 37.25%
SARS-CoV-2 [7]
  EC50: 0.0046 ± 0.0004 mM
PBS iso-pH 1.2, in the presence of 10 mol eq. NAC
  cumulative permeated bismuth: 24.91 ng/cm2
PBS iso-pH 1.2, without NAC
  cumulative permeated bismuth: 16.95 ng/cm2
Caco2 cells
  CC50: 3.74 ± 0.125 mM
[8]; 24 hours after oral dose
  bismuth accumulation in kidney: 6839.76 ng per tissue
  bismuth accumulation in lung: 552.15 ng per tissue
[8]; at around 0.5 h, single oral dose CBS 150 mg/kg
  first peak value of blood bismuth level: 277.69 µg/L
[8]; [10]
  AUC0→24 h (±SD): 2324.20 (±759.76) h · μg/L
  Cmax (±SD): 447.06 ng/mL
[8]; [11]
  AUC0→12 h (±SD): 1316 h · μg/L and 1316.94 (±474.00) h · μg/L
  Tmax (±SD): 4 h and 2.53(±2.01) h
VeroE6 cells
  CC50: 3.254 ± 0.021 mM
[9]; pH 1.2, after 1 hour, without NAC
  bismuth found in the supernatant: less than 10%
[9]; pH 1.2, in the presence of 3 mol eq. NAC
  bismuth remaining in the supernatant: approximately 100%
[9]; pH 1.2, in the presence of 10 mol eq. NAC
  bismuth remaining in the supernatant: approximately 100%
[9]; pH 9.2
  hydrolysis at pH 9.2 in the presence of NAC: prevent hydrolysis
